What was measured:
[1] = tested on: inducible nitric oxide synthase (iNOS), cyclooxygenase-2 (COX-2); conditions: cited from earlier work
[2] = cited from earlier work
[3] = tested on: ERK and CREB signaling pathways; conditions: cited from earlier work
[4] = chronic oral administration; cited from earlier work
BACE1 [5] = molecular target: T1, BACE1 (Homo sapiens, UniProt P56817); test: FRET-based BACE1 inhibition assay; assay type: biochemical; conditions: FRET substrate Rh-[…]-Quencher
T1 construct: purchased Invitrogen (Pan Vera, Madison, WI, USA)
T1 sequence (P56817 46-501): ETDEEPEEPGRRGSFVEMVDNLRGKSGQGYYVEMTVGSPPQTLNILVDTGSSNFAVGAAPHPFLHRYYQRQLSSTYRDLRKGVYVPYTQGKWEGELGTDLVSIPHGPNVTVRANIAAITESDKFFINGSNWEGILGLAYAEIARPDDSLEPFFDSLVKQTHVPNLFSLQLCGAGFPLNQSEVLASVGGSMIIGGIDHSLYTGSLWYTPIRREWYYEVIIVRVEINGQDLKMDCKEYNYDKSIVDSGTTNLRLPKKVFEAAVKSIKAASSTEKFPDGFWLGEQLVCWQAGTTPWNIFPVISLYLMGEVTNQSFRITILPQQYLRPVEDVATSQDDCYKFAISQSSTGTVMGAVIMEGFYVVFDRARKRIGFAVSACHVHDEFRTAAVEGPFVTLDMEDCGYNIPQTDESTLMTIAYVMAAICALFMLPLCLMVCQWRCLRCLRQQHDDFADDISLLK
Protocol: (§1) BACE1 inhibition was determined by enzymatic assay using the fluorescent resonance energy transfer (FRET)-based BACE1 kit from Invitrogen (Pan Vera, Madison, WI, USA). α-Secretase (tumor necrosis factor-α converting enzyme, TACE) and substrate were obtained from R&D Systems (Minneapolis, MN, USA). Trypsin, chymotrypsin, elastase, and their substrates were obtained from Sigma-Aldrich (St. Louis, MO, USA). The measurement of fluorescence and optical density was performed with a BioTEK ELISA microplate fluorescence reader FLx 800 and BioTEK ELx 808 (Winooski, VT, USA), respectively.
(§2) BACE1, TACE, chymotrypsin, trypsin and elastase assays were performed according to previous methods. Fluorometric BACE1 and TACE assay were measured using a Rh-[…]-Quencher and Mca-PLAQAV-Dpa-RSSSR-NH2 as substrates. Trypsin, chymotrypsin, and elastase were assayed according to the manual described in the reference using N-benzoyl-L-Arg-pNA, N-benzoyl-L-Tyr-pNA, and N-succinyl-Ala-Ala-Ala-pNA as substrates, respectively.

BACE1 [6] = molecular target: T1, BACE1; test: BACE1 inhibition kinetics (Dixon and Lineweaver–Burk plots); assay type: biochemical; conditions: for Type of inhibition: Dixon and Lineweaver–Burk plots; for Ki: substrate 250-750 nM, read-out: Ki calculated from the Dixon plots
Protocol: The kinetic mechanisms of the different samples towards BACE1 were determined by the graphical views of Dixon and Lineweaver–Burk plots. The inhibitory constants (Ki) value was defined by interpretation of the Dixon plot, where the value of the x-axis implies -Ki. […] The kinetic parameters were then calculated using Enzyme Kinetic^TM module of SigmaPlot^TM version 12.3 (Systat Software, Inc., San Jose, CA, USA).

Chymotrypsin = molecular target: T2, Chymotrypsin (Bos taurus, UniProt P00766); test: Chymotrypsin assay; assay type: biochemical; conditions: read-out: Inhibitory activity (%) against Chymotrypsin
T2 construct: purchased Sigma-Aldrich (St. Louis, MO, USA)
Protocol: as §1, §2

P-glycoprotein (P-gp) = tested on: P-glycoprotein (P-gp); design: method as in PMID 11098080, PMID 17348674; conditions: adriamycin-resistant human myelogenous leukemia cells and Caco-2 cells, talinolol as probe; cited from earlier work
Elastase = molecular target: T3, Elastase (Sus scrofa, UniProt P00772); test: Elastase assay; assay type: biochemical; conditions: read-out: Inhibitory activity (%) against Elastase
T3 construct: purchased Sigma-Aldrich (St. Louis, MO, USA)
T3 sequence (P00772 27-266): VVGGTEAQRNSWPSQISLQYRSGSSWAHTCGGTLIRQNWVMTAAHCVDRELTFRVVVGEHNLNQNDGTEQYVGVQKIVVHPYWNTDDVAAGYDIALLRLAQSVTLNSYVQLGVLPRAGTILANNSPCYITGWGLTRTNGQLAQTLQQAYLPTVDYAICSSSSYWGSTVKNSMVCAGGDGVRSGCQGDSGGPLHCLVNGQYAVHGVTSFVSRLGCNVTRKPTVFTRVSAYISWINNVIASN
Protocol: as §1, §2

6-OHDA-lesioned rats = conditions: 20 mg/kg/day for 4 days before 6-OHDA injection; cited from earlier work
[7] = rats, up to 1000 to 3000 mg/kg bw; cited from earlier work
[8] = tested on: primary rat microglia and BV-2 microglial cell; conditions: LPS-induced; cited from earlier work
[9] = molecular target: T4, α-secretase (tumor necrosis factor-α converting enzyme, TACE) (Homo sapiens, UniProt P78536); test: TACE (α-secretase) fluorometric assay; assay type: biochemical; conditions: read-out: Inhibitory activity (%) against TACE
T4 construct: purchased R&D Systems (Minneapolis, MN, USA)
T4 sequence (P78536 215-824): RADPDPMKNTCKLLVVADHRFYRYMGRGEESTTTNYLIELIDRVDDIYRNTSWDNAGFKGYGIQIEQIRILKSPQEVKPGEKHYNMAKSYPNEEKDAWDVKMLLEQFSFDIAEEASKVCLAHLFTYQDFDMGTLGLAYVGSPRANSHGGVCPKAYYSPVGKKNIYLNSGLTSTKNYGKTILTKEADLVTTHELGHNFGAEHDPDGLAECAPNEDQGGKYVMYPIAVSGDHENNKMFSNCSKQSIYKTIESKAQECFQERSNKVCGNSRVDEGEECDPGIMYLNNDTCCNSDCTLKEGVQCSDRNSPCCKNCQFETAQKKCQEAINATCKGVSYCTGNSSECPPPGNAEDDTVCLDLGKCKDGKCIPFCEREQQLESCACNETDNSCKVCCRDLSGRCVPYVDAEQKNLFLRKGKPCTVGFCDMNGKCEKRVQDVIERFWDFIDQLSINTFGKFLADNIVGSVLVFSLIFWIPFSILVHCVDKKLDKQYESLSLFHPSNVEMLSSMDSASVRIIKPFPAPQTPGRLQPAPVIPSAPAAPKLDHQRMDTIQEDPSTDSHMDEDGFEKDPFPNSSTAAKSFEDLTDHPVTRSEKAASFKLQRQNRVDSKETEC
Protocol: as §1, §2

Trypsin = Trypsin assay; assay type: biochemical
Protocol: as §1, §2

[10] = tested on: cyclic AMP response element-mediated transcription; design: method as in PMID 23588349; conditions: rat hippocampal neurons; cited from earlier work
[11] = cited from earlier work; remark: listed apart in the source
3XTg-AD mice = conditions: cited from earlier work
APP-SL 7-5 Tg mice = conditions: daily from 4 to 9 months of age; cited from earlier work
[12] = tested on: olfactory bulbectomy-induced memory impairment; conditions: administration for 11 days; cited from earlier work

IC50 (BACE1 [5]) [µM]	Type of inhibition (BACE1 [6])	Ki (BACE1 [6]) [µM]	inhibition at 50 µM (Chymotrypsin) [%]	inhibition at 100 µM (Chymotrypsin) [%]	inhibition at 50 µM (Elastase) [%]	inhibition at 100 µM (Elastase) [%]	Structure (SMILES)	Suppression of gene expression of iNOS and COX-2 relative to parent compound [1]	P-gp inhibition (P-glycoprotein (P-gp))	inhibition at 50 µM [9] [%]	inhibition at 100 µM [9] [%]	Inhibitory activity (%) against Trypsin (Trypsin; 50 μM) [%]	Inhibitory activity (%) against Trypsin (Trypsin; 100 μM) [%]	further results
–	–	–	–	–	–	–	COc1c(OC)c(OC)c2c(=O)cc(-c3ccc(O)c(O)c3)oc2c1OC [3′,4′-di-DMN]	more efficiently suppressed	–	–	–	–	–	–
–	–	–	–	–	–	–	COc1ccc(-c2cc(=O)c3c(OC)c(OC)c(OC)c(OC)c3o2)cc1O [3′-DMN]	–	–	–	–	–	–	iNOS inhibition relative to nobiletin [1]: more efficiently than nobiletin
–	–	–	–	–	–	–	COc1cc(-c2cc(=O)c3c(OC)c(OC)c(OC)c(OC)c3o2)ccc1O [4′-DMN]	more efficiently suppressed	–	–	–	–	–	Ability to cross the blood–brain barrier (BBB) [2]: able to cross the blood–brain barrier (BBB); Phosphorylation of ERK and CREB [3]: stimulate phosphorylation
63	noncompetitive	38	9.08 ± 0.48	8.78 ± 0.8	7.4 ± 2.09	11.4 ± 1.38	COc1ccc(-c2cc(=O)c3c(OC)c(OC)c(OC)cc3o2)cc1OC [Sinensetin, 5,6,7,3′,4′-pentamethoxyflavone]	–	–	7.88 ± 1.12	7.19 ± 1.35	5.16 ± 0.69	4.70 ± 0.58	CRE-mediated transcription [10]: activate
59	noncompetitive	34	1.39 ± 0.17	1.77 ± 0.06	5.51 ± 1.17	4.49 ± 1	COc1ccc(-c2cc(=O)c3c(OC)c(OC)c(OC)c(OC)c3o2)cc1OC [Nobiletin, 5,6,7,8,3′,4′-hexamethoxyflavone]	–	inhibitory potential with P-gp	5.49 ± 0.34	11.6 ± 3.07	1.00 ± 0.07	0.92 ± 0.06	Content in the brain ([11]; mice, oral 50 mg/kg): 3.6 mg/kg; Content in the brain (molar) ([11]; mice, oral 50 mg/kg): approximately 8.9 µM; Accumulation in the brain versus liver ([11]; oral administration): much higher than that in the liver; Soluble Aβ1-40 and ROS levels in brain and hippocampus (3XTg-AD mice): reduced the levels; Aβ1-42 and Aβ1-40 in the brain (APP-SL 7-5 Tg mice): reduced quantity; Memory impairment, context-dependent fear conditioning test (APP-SL 7-5 Tg mice): significantly reversed memory impairment; Memory impairment [12]: significantly recovered

Structure (SMILES)	IC50 (BACE1 [5]) [µM]	Type of inhibition (BACE1 [6])	Ki (BACE1 [6]) [µM]	inhibition at 50 µM (Chymotrypsin) [%]	inhibition at 100 µM (Chymotrypsin) [%]	inhibition at 50 µM (Elastase) [%]	inhibition at 100 µM (Elastase) [%]	Suppression of gene expression of iNOS and COX-2 relative to parent compound [1]	P-gp inhibition (P-glycoprotein (P-gp))	inhibition at 50 µM [9] [%]	inhibition at 100 µM [9] [%]	Inhibitory activity (%) against Trypsin (Trypsin; 50 μM) [%]	Inhibitory activity (%) against Trypsin (Trypsin; 100 μM) [%]	further results
COc1ccc(-c2cc(=O)c3c(OC)c(OC)c(OC)c(OC)c3o2)cc1 [Tangeretin, 5,6,7,8,4′-pentamethoxyflavo-ne]	49	noncompetitive	37	5.68 ± 0.86	6.16 ± 0.38	8.64 ± 0.65	10.6 ± 1.09	–	inhibitory potential with P-gp	8 ± 1	11.3 ± 1.66	8.10 ± 0.99	11.80 ± 1.04	Detection in the hippocampus [4]: detected in the hippocampus; Loss of TH+ cells and striatal dopamine content (6-OHDA-lesioned rats): markedly reduced the loss; Death and clinical chemistry in oral acute and sub-acute study [7]: no evidence of death nor significant change of clinical chemistry; Microglial cell activation [8]: suppressed
